From article PMC8443589, “Modelling human liver fibrosis in the context of non-alcoholic steatohepatitis using a microphysiological system” (Communications Biology, 2021)

Legend:
[1] = system: liver MPS NASH model (PHH, KC and HSC co-cultures, high fat); assay: Secreted cytokine/biomarker profile (Luminex, ELISA) of liver MPS NASH model dosed with OCA or ELF; type: cell-based, human
Procedure: Fig. 3 Obeticholic acid and Elafibranor both modulate inflammatory and fibrosis phenotype in liver MPS NASH model and phenotype can additionally be reversed with dietary changes. PHH, KC and HSC co-cultures were cultured in the MPS platform under high fat conditions and dosed with varying concentrations of Obeticholic acid (OCA) and Elafibranor (ELF) QD or vehicle control (control) for 10 days, following an initial 4-day pre-culture phase. a The secreted cytokine profile from liver microtissues was compared by Luminex to determine the effects of each compound on the inflammatory profile of the liver with samples analysed at day 8 and 14 of the culture. Data were normalised by Z-transformation to allow comparison of all analytes and presented as a heatmap. b The expression of fibrosis-associated genes was analysed in total RNA from control, OCA and ELF treated liver microtissues (highest concentration for each compound) using Human Fibrosis RT2 Profiler PCR Arrays. Gene expression changes are expressed as a fold change over control. c Liver microtissues were stained for collagen-type I, α-SMA, nuclei (DAPI - blue), phalloidin (green) and imaged by confocal microscopy. Representative images are shown and scale bars 200 µm. d Staining of microtissue was quantified by measuring total fluorescence intensity throughout individual microtissues, each data point represents an average of all the microtissues imaged within an MPS scaffold (min 8, max 20 microtissues). e PHH, KC and HSC co-cultures were cultured in the MPS platform under high fat or lean conditions for 30 days. Cultures either remained in the same type of media throughout or were switched at day 15 from fat media to lean media (Fat -> Lean). Cell culture medium samples were analysed for the presence of IL-6, f MCP-1, g TIMP-1, which were measured by ELISA. h Microtissues were stained with Oil-Red O to determine fat loading during culture period, total stain was quantified by absorbance at 510 nm. All datapoints shown, either as box-whisker plots highlighting mean and min-max or with error bars highlighting means ± SD. All data from a minimum of three independent cultures; statistical comparisons made to control samples unless other comparison shown.
Soluble biomarkers in cell culture medium from the MPS were analysed by enzyme-linked immunosorbent assay (ELISA); IL-6 was measured by Human IL-6 DuoSet ELISA (R&D Systems); MCP-1 was measured by Human CCL2/MCP-1 DuoSet ELISA (R&D Systems); pro-collagen 1 was measured by Human Pro-Collagen I α1 DuoSet (R&D Systems); TIMP-1 was measured by Human TIMP-1 Quantikine ELISA Kit (R&D Systems); Fibronectin was measured by Human Fibronectin DuoSet ELISA (R&D Systems); YKL-40 was measured by Human Chitinase 3-like 1 Quantikine ELISA Kit (R&D Systems); Albumin secretion was measured by Human Albumin AssayMax™ ELISA kit (Assay Pro, St. Charles, MO). For all assays, the manufacturer’s protocol was followed.
Cytokine profiles in cell culture medium samples were also analysed by Luminex array for determination of 38 analytes in total, consisting of cytokines, chemokines, and growth factors using the MILLIPLEX MAP Human Cytokine/Chemokine Magnetic Bead Panel - Premixed 38 Plex (Merck Millipore, USA).
Liver microtissues were cultured for 4 days in HEP-FAT medium, before dosing with obeticholic acid or elafibranor. Both compounds were dissolved in DMSO, diluted in cell culture medium (final DMSO concentration ≤1%) and added to microtissues during a full medium change every two days and in addition on the intervening days compounds were spiked into the media to increase drug concentration back to desired concentrations. Cultures were maintained in the presence of the compound, for a total of 10 days in the presence or absence of TGFβ.

[2] = clinical dose, cited from earlier work
[3] = system: human NASH patients; conditions: 18-month interim analysis; cited from earlier work

SMILES: CC[C@H]1[C@@H](O)[C@@H]2[C@H](CC[C@]3(C)[C@@H]([C@H](C)CCC(=O)O)CC[C@@H]23)[C@@]2(C)CC[C@@H](O)C[C@@H]12 [Obeticholic acid]
- inflammatory cytokines, including CXCL1, IL1-Rα, IL-6 and MCP-1 ([1]; 10 days of compound treatment): concentration-dependent decrease
- CXCL1 fold change in production compared to control ([1]; OCA 0.25 µM QD, D8): 1.039
- CXCL10 fold change in production compared to control ([1]; OCA 0.25 µM QD, D8): 1.592
- FN1 fold change in production compared to control ([1]; OCA 0.25 µM QD, D8): 1.009
- IL-1RA fold change in production compared to control ([1]; OCA 0.25 µM QD, D8): 0.6936
- IL-4 fold change in production compared to control ([1]; OCA 0.25 µM QD, D8): 1.307
- IL-6 fold change in production compared to control ([1]; OCA 0.25 µM QD, D8): 0.4788
- IL-8 fold change in production compared to control ([1]; OCA 0.25 µM QD, D8): 1.109
- MCP-1 fold change in production compared to control ([1]; OCA 0.25 µM QD, D8): 1.237
- MIP-1a fold change in production compared to control ([1]; OCA 0.25 µM QD, D8): 1.006
- MIP-1b fold change in production compared to control ([1]; OCA 0.25 µM QD, D8): 1.009
- TIMP-1 fold change in production compared to control ([1]; OCA 0.25 µM QD, D8): 0.957
- VEGF fold change in production compared to control ([1]; OCA 0.25 µM QD, D8): 0.3694
- CXCL1 fold change in production compared to control ([1]; OCA 0.25 µM QD, D14): 0.7512
- CXCL10 fold change in production compared to control ([1]; OCA 0.25 µM QD, D14): 1.289
- FN1 fold change in production compared to control ([1]; OCA 0.25 µM QD, D14): 1.087
- IL-1RA fold change in production compared to control ([1]; OCA 0.25 µM QD, D14): 0.3915
- IL-4 fold change in production compared to control ([1]; OCA 0.25 µM QD, D14): 1.067
- IL-6 fold change in production compared to control ([1]; OCA 0.25 µM QD, D14): 0.3892
- IL-8 fold change in production compared to control ([1]; OCA 0.25 µM QD, D14): 0.7621
- MCP-1 fold change in production compared to control ([1]; OCA 0.25 µM QD, D14): 1.11
- MIP-1a fold change in production compared to control ([1]; OCA 0.25 µM QD, D14): 1.483
- MIP-1b fold change in production compared to control ([1]; OCA 0.25 µM QD, D14): 1.406
- TIMP-1 fold change in production compared to control ([1]; OCA 0.25 µM QD, D14): 0.7667
- VEGF fold change in production compared to control ([1]; OCA 0.25 µM QD, D14): 0.2436
- CXCL1 fold change in production compared to control ([1]; OCA 5 µM QD, D8): 0.9903
- CXCL10 fold change in production compared to control ([1]; OCA 5 µM QD, D8): 1.252
- FN1 fold change in production compared to control ([1]; OCA 5 µM QD, D8): 0.9708
- IL-1RA fold change in production compared to control ([1]; OCA 5 µM QD, D8): 0.2279
- IL-4 fold change in production compared to control ([1]; OCA 5 µM QD, D8): 1.215
- IL-6 fold change in production compared to control ([1]; OCA 5 µM QD, D8): 0.3708
- IL-8 fold change in production compared to control ([1]; OCA 5 µM QD, D8): 1.325
- MCP-1 fold change in production compared to control ([1]; OCA 5 µM QD, D8): 0.9348
- MIP-1a fold change in production compared to control ([1]; OCA 5 µM QD, D8): 0.7425
- MIP-1b fold change in production compared to control ([1]; OCA 5 µM QD, D8): 0.6949
- TIMP-1 fold change in production compared to control ([1]; OCA 5 µM QD, D8): 0.8577
- VEGF fold change in production compared to control ([1]; OCA 5 µM QD, D8): 0.4201
- CXCL1 fold change in production compared to control ([1]; OCA 5 µM QD, D14): 0.8937
- CXCL10 fold change in production compared to control ([1]; OCA 5 µM QD, D14): 1.722
- FN1 fold change in production compared to control ([1]; OCA 5 µM QD, D14): 1.05
- IL-1RA fold change in production compared to control ([1]; OCA 5 µM QD, D14): 0.2225
- IL-4 fold change in production compared to control ([1]; OCA 5 µM QD, D14): 1.3182
- IL-6 fold change in production compared to control ([1]; OCA 5 µM QD, D14): 0.3278
- IL-8 fold change in production compared to control ([1]; OCA 5 µM QD, D14): 2.0708
- MCP-1 fold change in production compared to control ([1]; OCA 5 µM QD, D14): 0.6363
- MIP-1a fold change in production compared to control ([1]; OCA 5 µM QD, D14): 0.8372
- MIP-1b fold change in production compared to control ([1]; OCA 5 µM QD, D14): 0.7752
- TIMP-1 fold change in production compared to control ([1]; OCA 5 µM QD, D14): 0.8205
- VEGF fold change in production compared to control ([1]; OCA 5 µM QD, D14): 0.5877
- CXCL1 fold change in production compared to control ([1]; OCA 12.5 µM QD, D8): 0.5392
- CXCL10 fold change in production compared to control ([1]; OCA 12.5 µM QD, D8): 1.011
- FN1 fold change in production compared to control ([1]; OCA 12.5 µM QD, D8): 0.8305
- IL-1RA fold change in production compared to control ([1]; OCA 12.5 µM QD, D8): 0.1467
- IL-4 fold change in production compared to control ([1]; OCA 12.5 µM QD, D8): 0.6477
- IL-6 fold change in production compared to control ([1]; OCA 12.5 µM QD, D8): 0.3353
- IL-8 fold change in production compared to control ([1]; OCA 12.5 µM QD, D8): 0.6609
- MCP-1 fold change in production compared to control ([1]; OCA 12.5 µM QD, D8): 0.4398
- MIP-1a fold change in production compared to control ([1]; OCA 12.5 µM QD, D8): 1.1281
- MIP-1b fold change in production compared to control ([1]; OCA 12.5 µM QD, D8): 0.9989
- TIMP-1 fold change in production compared to control ([1]; OCA 12.5 µM QD, D8): 1.076
- VEGF fold change in production compared to control ([1]; OCA 12.5 µM QD, D8): 0.449
- CXCL1 fold change in production compared to control ([1]; OCA 12.5 µM QD, D14): 0.5648
- CXCL10 fold change in production compared to control ([1]; OCA 12.5 µM QD, D14): 0.9485
- FN1 fold change in production compared to control ([1]; OCA 12.5 µM QD, D14): 0.8335
- IL-1RA fold change in production compared to control ([1]; OCA 12.5 µM QD, D14): 0.07151
- IL-4 fold change in production compared to control ([1]; OCA 12.5 µM QD, D14): 0.8808
- IL-6 fold change in production compared to control ([1]; OCA 12.5 µM QD, D14): 0.05395
- IL-8 fold change in production compared to control ([1]; OCA 12.5 µM QD, D14): 1.84
- MCP-1 fold change in production compared to control ([1]; OCA 12.5 µM QD, D14): 0.2656
- MIP-1a fold change in production compared to control ([1]; OCA 12.5 µM QD, D14): 0.8417
- MIP-1b fold change in production compared to control ([1]; OCA 12.5 µM QD, D14): 0.7263
- TIMP-1 fold change in production compared to control ([1]; OCA 12.5 µM QD, D14): 0.9472
- VEGF fold change in production compared to control ([1]; OCA 12.5 µM QD, D14): 0.5676
- liver Cmax [2]: 12500 nM
- Cmax ([2]; read-out: Plasma Cmax): 500 nM
- NASH resolution in phase 3 trial [3]: did not reach statistical significance
- liver fibrosis in phase 3 trial [3]: improved liver fibrosis
